Activity data for 29 compounds are collected here from ChEMBL document CHEMBL1157197, “Design, synthesis and trypanocidal activity of lead compounds based on inhibitors of parasite glycolysis” (Bioorg Med Chem, 2008).

Test [1] has as its target T1, Pyruvate kinase (Leishmania mexicana) (UniProt Q27686).
T1 sequence (whole entry): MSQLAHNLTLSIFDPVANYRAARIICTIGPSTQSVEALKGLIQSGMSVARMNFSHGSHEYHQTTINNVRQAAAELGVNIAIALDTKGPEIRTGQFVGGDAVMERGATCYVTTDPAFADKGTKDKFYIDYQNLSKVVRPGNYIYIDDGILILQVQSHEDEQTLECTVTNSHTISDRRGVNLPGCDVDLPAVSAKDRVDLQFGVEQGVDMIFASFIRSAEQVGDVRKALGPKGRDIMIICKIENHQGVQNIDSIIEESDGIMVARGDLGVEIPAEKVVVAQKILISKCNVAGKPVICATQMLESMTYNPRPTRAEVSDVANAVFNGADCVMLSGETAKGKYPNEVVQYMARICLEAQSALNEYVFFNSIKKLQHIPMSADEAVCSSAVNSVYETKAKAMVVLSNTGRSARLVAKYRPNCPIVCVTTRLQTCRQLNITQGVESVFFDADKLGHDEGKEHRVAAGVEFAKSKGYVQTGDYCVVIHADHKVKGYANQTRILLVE
Put plainly: Inhibition of Leishmania mexicana pyruvate kinase assessed as enzyme residual activity at 5 mM.

Test [2] deals with T2, ATP-dependent 6-phosphofructokinase (Trypanosoma brucei) (UniProt O15648).
T2 sequence (whole entry): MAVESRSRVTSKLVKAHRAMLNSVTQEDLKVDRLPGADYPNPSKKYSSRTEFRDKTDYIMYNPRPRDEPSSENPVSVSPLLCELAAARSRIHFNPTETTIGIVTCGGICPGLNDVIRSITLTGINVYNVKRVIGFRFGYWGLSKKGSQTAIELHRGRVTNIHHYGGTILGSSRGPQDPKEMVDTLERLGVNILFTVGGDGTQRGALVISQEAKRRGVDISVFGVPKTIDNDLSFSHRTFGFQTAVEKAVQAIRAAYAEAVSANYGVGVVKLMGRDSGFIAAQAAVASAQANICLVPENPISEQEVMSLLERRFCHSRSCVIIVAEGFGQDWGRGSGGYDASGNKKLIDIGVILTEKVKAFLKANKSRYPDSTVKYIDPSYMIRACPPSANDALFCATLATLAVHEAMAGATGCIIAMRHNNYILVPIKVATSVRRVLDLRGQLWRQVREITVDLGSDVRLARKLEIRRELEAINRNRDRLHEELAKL
Nature of the test: Inhibition of Trypanosoma brucei phosphofructokinase assessed as enzyme residual activity at 5 mM.

For `OC[C@H]1O[C@H](CNC(c2ccccc2)c2ccccc2)[C@@H](O)[C@@H]1O`, the Activity in test [1] was determined as 89%; in test [2], 30%.

In the case of `OC[C@H]1O[C@H](CNC2CCc3ccccc32)[C@@H](O)[C@@H]1O` (stereo not given in full), the values for the Activity in test [1] and in test [2] were 86% and 41%, respectively.

With `CC(C)C[C@H](CO)NC[C@H]1O[C@H](CO)[C@@H](O)[C@@H]1O`, the figures for the Activity in test [1] and in test [2] were 86% and 52%, respectively.

Regarding `Cc1ccc(CNC[C@H]2O[C@H](CO)[C@@H](O)[C@@H]2O)cc1`, the Activity in test [1] was determined as 90%; in test [2], 73%.

Take `C[C@@H](NC[C@H]1O[C@H](CO)[C@@H](O)[C@@H]1O)c1ccc(Cl)cc1`: the Activity in test [1] is 84%.

Take `OC[C@H]1O[C@H](CN[C@H]2c3ccccc3C[C@H]2O)[C@@H](O)[C@@H]1O`: the Activity was found to be 103% in test [1] and 52% in test [2].

Take `O=C(NCc1ccccc1)[C@H]1O[C@H](CNC2CCCCCC2)[C@@H](O)[C@@H]1O`: in test [1], the Activity was found to be 11.5%.

`CCC(CO)NC[C@H]1O[C@H](CO)[C@@H](O)[C@@H]1O` (stereo not given in full): the results for the Activity in test [1] and in test [2] were 90% and 36%, respectively.

In the case of `C[C@H](NC[C@H]1O[C@H](CO)[C@@H](O)[C@@H]1O)c1ccc(Cl)cc1`, the Activity in test [1] stood at 58%.

For `OC[C@H]1O[C@H](CNCc2ccc(-c3ccccc3)cc2)[C@@H](O)[C@@H]1O`, the Activity in test [2] came out at 75%.

Take `OC[C@H]1O[C@H](CN[C@@H]2c3ccccc3C[C@@H]2O)[C@@H](O)[C@@H]1O`: the Activity in test [1] was 60%; in test [2], 57%.

Turning to `OC[C@H]1O[C@H](CNCc2cccc(C(F)(F)F)c2)[C@@H](O)[C@@H]1O`, the Activity in test [1] amounted to 105%; in test [2] it was 46%.

For the compound `OCC(Cc1ccccc1)NC[C@H]1O[C@H](CO)[C@@H](O)[C@@H]1O` (stereo not given in full), the Activity in test [1] turned out to be 59%; in test [2], 47%.

Turning to `O=C(Nc1ccccc1)[C@H]1O[C@H](CNC2CCCCCC2)[C@@H](O)[C@@H]1O`, the Activity in test [1] came out at 24.8%.

With `CC(CCc1ccccc1)NC[C@H]1O[C@H](CO)[C@@H](O)[C@@H]1O` (stereo not given in full), the values for the Activity in test [1] and in test [2] were 95% and 73%, respectively.

Regarding `OCCC(NC[C@H]1O[C@H](CO)[C@@H](O)[C@@H]1O)c1ccccc1` (stereo not given in full), the Activity in test [1] was found to be 85%; in test [2] it was 47%.

In the case of `OC[C@H]1O[C@H](CNCc2cccc(Cl)c2)[C@@H](O)[C@@H]1O`, the Activity was 88% in test [1] and 85% in test [2].

Turning to `CC(C)C[C@@H](CO)NC[C@H]1O[C@H](CO)[C@@H](O)[C@@H]1O`, the Activity in test [1] amounted to 73%; in test [2] it was 64%.

Turning to `OC[C@H]1O[C@H](CNCc2ccccc2F)[C@@H](O)[C@@H]1O`, the Activity came to 42% in test [1] and 63% in test [2].

On to `OC[C@H]1O[C@H](CNC2Cc3ccccc3C2)[C@@H](O)[C@@H]1O`, for which the Activity in test [1] is 49%; in test [2], 33%.

For `CC(C)CCCC(C)NC[C@H]1O[C@H](CO)[C@@H](O)[C@@H]1O` (stereo not given in full), the results for the Activity in test [1] and in test [2] were 80% and 87%, respectively.

On to `O=C(Nc1ccc([N+](=O)[O-])cc1)[C@H]1O[C@H](CNC2CCCCCC2)[C@@H](O)[C@@H]1O`, for which the Activity in test [1] came out at 12.5%.

For the compound `Cc1ccc(C)c(CNC[C@H]2O[C@H](CO)[C@@H](O)[C@@H]2O)c1`, the Activity in test [2] came out at 69%.

In the case of `C[C@@H](NC[C@H]1O[C@H](CO)[C@@H](O)[C@@H]1O)c1ccc(F)cc1`, in test [1], the Activity worked out at 53%.

As to `C[C@H](NC[C@H]1O[C@H](CO)[C@@H](O)[C@@H]1O)c1ccc(F)cc1`, the Activity in test [1] was found to be 36%.

Take `OC[C@H]1O[C@H](CNCc2ccc(Cl)cc2Cl)[C@@H](O)[C@@H]1O`: in test [2], the Activity was determined as 58%.

Take `OC[C@H]1O[C@H](CN[C@@H]2C[C@@H]3CC[C@@H]2C3)[C@@H](O)[C@@H]1O`: the Activity in test [1] came to 47%.

As for `C=CCNC(=O)[C@H]1O[C@H](CNC2CCCCCC2)[C@@H](O)[C@@H]1O`, the Activity in test [1] was 19.1%.

Turning to `CC[C@@H](C)NC[C@H]1O[C@H](CO)[C@@H](O)[C@@H]1O`, the Activity in test [1] was determined as 28%.
